Read-outs that look alike come from different tables or passages of the source.
Tests used:
JHDM1A = molecular target: T1, JHDM1A (Homo sapiens, UniProt Q9Y2K7); experiment: JHDM1A FLT protease protection assay; format: biochemical; conditions: peptide 10 1 μM, JHDM1A 150 nM, 5 h; Endo-LysC up to 120 min
T1 construct: purchased BPS BioScience (via AMSBio, UK)
T1 sequence (Q9Y2K7 1-1162): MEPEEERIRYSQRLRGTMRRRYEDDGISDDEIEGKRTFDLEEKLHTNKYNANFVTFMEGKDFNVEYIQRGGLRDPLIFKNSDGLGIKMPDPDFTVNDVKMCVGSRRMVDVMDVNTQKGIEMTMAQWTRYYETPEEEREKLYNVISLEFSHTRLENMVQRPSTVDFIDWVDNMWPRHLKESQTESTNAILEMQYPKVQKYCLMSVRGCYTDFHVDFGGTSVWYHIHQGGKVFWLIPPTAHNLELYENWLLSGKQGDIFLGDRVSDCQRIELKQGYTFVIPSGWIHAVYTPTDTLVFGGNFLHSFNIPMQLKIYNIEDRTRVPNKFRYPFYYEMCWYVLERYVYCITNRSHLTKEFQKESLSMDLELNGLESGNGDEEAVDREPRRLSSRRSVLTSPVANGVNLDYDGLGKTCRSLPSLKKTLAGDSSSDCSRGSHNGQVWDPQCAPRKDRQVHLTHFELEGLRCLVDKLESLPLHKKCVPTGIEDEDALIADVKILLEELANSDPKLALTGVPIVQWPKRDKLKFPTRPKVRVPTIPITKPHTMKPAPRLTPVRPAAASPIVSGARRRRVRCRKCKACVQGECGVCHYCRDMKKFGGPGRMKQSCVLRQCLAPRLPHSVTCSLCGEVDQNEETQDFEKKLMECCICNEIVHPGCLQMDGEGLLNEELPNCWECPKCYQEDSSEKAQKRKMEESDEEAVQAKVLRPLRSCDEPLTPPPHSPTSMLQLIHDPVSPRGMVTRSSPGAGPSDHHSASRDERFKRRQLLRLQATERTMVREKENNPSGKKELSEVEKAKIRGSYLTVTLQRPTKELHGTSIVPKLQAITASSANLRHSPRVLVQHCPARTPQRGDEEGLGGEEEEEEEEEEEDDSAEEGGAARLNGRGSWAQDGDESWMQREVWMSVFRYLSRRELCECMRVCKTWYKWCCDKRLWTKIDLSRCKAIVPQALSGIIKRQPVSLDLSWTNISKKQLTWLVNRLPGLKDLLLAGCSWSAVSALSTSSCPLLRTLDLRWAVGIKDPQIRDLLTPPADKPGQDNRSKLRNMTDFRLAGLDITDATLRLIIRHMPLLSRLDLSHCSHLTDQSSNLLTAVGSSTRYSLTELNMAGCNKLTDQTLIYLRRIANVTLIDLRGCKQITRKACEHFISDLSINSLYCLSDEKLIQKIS
Protocol: The assay was performed in a 20 μl volume in a 384-well black microplate and contained peptide 10 (1 μM) and JHDM1A enzyme (150 nM) in assay buffer (50 mM Tris, pH 7.4, 100 μM sodium ascorbate, 10 μM ammonium ferrous sulfate, 100 μM α-ketoglutarate, 0.01% Tween-20). Control wells containing peptide only were also included. After 5 h incubation at room temperature, 10 μl of Endo-LysC (30 nM) was added to the wells and the plate incubated at room temperature for up to 120 min. FLTs were then measured in triplicate on a NanoTaurus plate reader.
Assays were performed in a 384-well microplate at room temperature with an assay volume of 20 μl per well. To wells containing recombinant JHDM1A enzyme in assay buffer (10 μl) was added peptide 10 in assay buffer (10 μl). Two sets of control wells containing peptide 10 only were included. The plate was shaken and then sealed with a coverslip. The final concentration of JHDM1A in the assay was 150 nM and 1 μM for peptide 10. After incubation at room temperature for 5 h, Endo-LysC (10 μl in assay buffer; final concentration 10 nM) was added to assay wells and one set of control wells. To the other set of control wells was added 10 μl of assay buffer. Following incubation at room temperature for 120 min, the microplate was centrifuged at 500 rpm for 1 min and FLTs measured. All measurements were performed in triplicate.

PCAF [1] = molecular target: T2, PCAF (Homo sapiens, UniProt Q92831); experiment: PCAF FLT protease protection assay; format: biochemical; conditions: peptide 17 (1 μM), 125 nM PCAF, 2 h; read-out: KM (app) for AcCoA
T2 construct: purchased Enzo Life Sciences
Protocol: The dependence of the PCAF assay on AcCoA concentration was investigated. The assay was performed in a 384-well microplate at room temperature for 2 h in assay buffer (20 μl) using 125 nM PCAF and 1 μM peptide 17. Concentrations of AcCoA were varied from 25 μM-0.02 μM.
For AcCoA titrations, to wells containing varying concentrations of AcCoA (5 μl in assay buffer) was added 5 μl of peptide 17 in assay buffer followed by 10 μl of PCAF in assay buffer. […] Following a further 90 min incubation at room temperature, FLTs were measured. All measurements were performed in triplicate.

PCAF [2] = molecular target: T2, PCAF; conditions: literature (Poux et al. 2002); read-out: reported KM for AcCoA; cited from earlier work

T2 sequence (Q92831 whole entry): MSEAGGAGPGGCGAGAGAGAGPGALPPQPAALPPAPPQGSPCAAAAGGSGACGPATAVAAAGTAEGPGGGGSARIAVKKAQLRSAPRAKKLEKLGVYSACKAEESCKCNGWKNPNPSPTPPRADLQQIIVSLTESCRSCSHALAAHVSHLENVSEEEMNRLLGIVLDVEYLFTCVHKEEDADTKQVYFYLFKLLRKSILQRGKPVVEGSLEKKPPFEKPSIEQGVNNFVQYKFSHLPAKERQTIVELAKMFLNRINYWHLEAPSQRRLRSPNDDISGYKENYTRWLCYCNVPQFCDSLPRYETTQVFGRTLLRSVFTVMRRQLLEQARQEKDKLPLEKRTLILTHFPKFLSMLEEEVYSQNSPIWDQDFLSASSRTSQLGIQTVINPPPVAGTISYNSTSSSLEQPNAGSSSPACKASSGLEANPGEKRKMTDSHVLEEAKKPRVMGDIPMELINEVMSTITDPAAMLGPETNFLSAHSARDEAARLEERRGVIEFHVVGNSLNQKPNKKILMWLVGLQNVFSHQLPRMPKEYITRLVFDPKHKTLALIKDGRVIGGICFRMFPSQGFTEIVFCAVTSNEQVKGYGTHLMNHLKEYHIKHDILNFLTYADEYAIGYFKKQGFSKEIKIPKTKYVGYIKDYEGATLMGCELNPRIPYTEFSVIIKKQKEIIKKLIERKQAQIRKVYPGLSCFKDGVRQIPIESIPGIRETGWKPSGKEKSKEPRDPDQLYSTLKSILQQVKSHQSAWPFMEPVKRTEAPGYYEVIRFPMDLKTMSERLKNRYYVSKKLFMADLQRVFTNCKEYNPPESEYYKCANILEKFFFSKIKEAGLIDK

| increase in FLT following protease treatment after reaction with JHDM1A (JHDM1A) | Compound | Km (PCAF [1]) [µM] | Km (PCAF [2]) [µM] |
| --- | --- | --- | --- |
| over 1 ns | 9AA-ATGGVK^36(Me)K(Me)PHRYW-CONH2 [peptide 10] | – | – |
| – | CC(=O)SCCNC(=O)CCNC(=O)[C@H](O)C(C)(C)COP(=O)(O)OP(=O)(O)OC[C@H]1O[C@@H](n2cnc3c(N)ncnc32)[C@H](O)[C@@H]1OP(=O)(O)O [AcCoA, acetyl co-enzyme A] | 1.2 | 1.6 |
